The text below walks through data of patent US10258701B2, “Labeled evans blue dye derivative for in vivo serum albumin labeling” (The United States of America, as represented by the …, priority 2015, dated 2019).

The target of data set [1] is T1, albumin (Homo sapiens, UniProt P02768). The data set is described as follows: Saturation binding assay of NEB with albumin (bound/unbound separated by agarose gel electrophoresis). The note with it: unbound NEB quantified, read-out: dissociation constant (Kd) of NEB to albumin. The text has this: In a particular embodiment, the compound of formula (I) (also referred to herein as “NEB”) wherein n is 0 can be synthesized in two steps starting from o-tolidine as shown in Scheme 1. 1, 4, 7-triazacyclononane-N,N,N″-triacetic acid-3HCl (“NOTA”) was first coupled to o-tolidine using diethyl cyanophosphonate to give NOTA-o-tolidine in 26% yield after preparative reversed-phase HPLC. NOTA-o-tolidine was then coupled to 1-amino-8-naphthol-2,4-disulfonic acid to give NEB through the formation of diazonium salt with a yield of 46.6%. The purity of the product was >98% based on HPLC analysis and the identity of the product was confirmed by LC-MS. This truncated version of Evans blue retained the binding ability with albumin since stable NEB/albumin complex was confirmed by LC/MS. The complex formation was also confirmed by saturation binding assay. The bound NEB could be separated from the unbound NEB using agarose gel electrophoresis. […] The ^18F-AlF complex of NEB is also referred to herein as ^18F-AlF-NEB. The ^64CU complex of NEB is also referred to herein as ^64Cu-NEB.

The conditions of data set [2]: human, in vivo.
Description: A dosimetry study was also performed based on the PET imaging data.
Data set [3] relates to UM-22B tumors. Further details: species or system mice. The note with it: female, athymic nude, mouse, in vivo. How it is done:
All animal studies were conducted in accordance with the principles and procedures outlined in the Guide for the Care and Use of Laboratory Animals and were approved by the Institutional Animal Care and Use Committee of the Clinical Center, NIH. The UM-22B human head and neck carcinoma cancer cell line was grown in DMEM medium supplemented with 10% fetal bovine serum (FBS), 100 IU/mL penicillin, and 100 μg/mL streptomycin (Invitrogen), and in a humidified atmosphere containing 5% CO2 at 37° C. The tumor model was developed in 5 to 6 week old female athymic nude mice (Harlan Laboratories) by injection of 5×10^6 cells into their right shoulders. The mice underwent small-animal PET studies when the tumor volume reached 100-300 mm^3 (2-3 weeks after inoculation).
PET scans and image analysis were performed using an Inveon small animal PET scanner (Siemens Medical Solutions). About 3.7 MBq of ^18F-AlF-NEB or ^18F-FB-Albumin or 7.4 MBq of ^64Cu-NEB was administered via tail vein injection under isoflurane anesthesia. For normal mice, 60-min dynamic PET scans were acquired. For tumor mice, 60-min dynamic PET scans were acquired, followed by a series of late time point scans at 2, 4, and 24 h (^64Cu only) after tracer injection. With acute inflammation model, 5-min static PET images were acquired at 30 min, 1 h and 2 h postinjection (n=3-5 per group). The images were reconstructed using a two-dimensional ordered-subset expectation maximum (2D OSEM) algorithm, and no correction was applied for attenuation or scatter. For each scan, regions of interest (ROIs) were drawn using vendor software (ASI Pro 5.2.4.0) on decay-corrected whole-body coronal images. The radioactivity concentrations (accumulation) within the heart, muscle, liver, and kidneys were obtained from mean pixel values within the multiple ROI volume and then converted to MBq per milliliter. These values were then divided by the administered activity to obtain (assuming a tissue density of 1 g/ml) an image-ROI-derived percent injected dose per gram (% ID/g).
Malignant tumors are characterized by torturous blood vessels and high vascular permeability. Besides, the anti-angiogenesis and “normalization” of tumor vasculature have been intensively investigated. Unlike radiolabeled RBCs, albumin can be used to study vascular permeability in tumors. NEB was labeled with ^64Cu, a positron emitter with longer half-life (t1/1=12.6 h) than ^18F (t1/2=109.8 min). A UM-22B xenograft model was developed and performed 60-min dynamic scan and then static scans at late time points up to 24 h. The in vivo distribution of ^64Cu-NEB was very similar to that of ^18F-AlF-NEB with most of radioactivity retained in the circulation system (FIG. 4A). Even at 4 h after tracer injection, radioactivity within heart region and major vessels was still dominant. […] At 24 h after tracer injection, the tumor uptake was still at a relatively high level (8.07±1.01% ID/g). The tracer uptake over the heart region was 16.09±0.51% ID/g at 1 h p.i., which dropped to 8.58±0.81% ID/g at 24 h (FIG. 5B).

Data set [4] has as its system lymph nodes. The data set is described as follows: Amount of EB dye in lymph nodes after local co-injection of 18F-AlF-NEB and EB. The conditions noted are these: ex vivo. The method, then: Ninety min after local injection, both popliteal LN sites could be distinguished clearly by the apparent blue color, indicating the local accumulation of the dye molecules. The left sciatic LNs could also be seen but with much lower uptake of dye (FIGS. 19A and 19B). There was significant difference in weight between the popliteal LNs on the tumor side and the contralateral side but not between the sciatic LNs (popliteal LNs: 3.582±0.762 vs. 1.995±0.759 mg, p<0.05; sciatic LNs: 1.558±0.731 vs. 1.403±0.632 mg, p>0.05) (FIG. 20). […] However, there was no difference in the amount of EB between two sciatic LNs (0.030±0.008 μg vs. 0.028±0.015 μg, p>0.05). These ex vivo results were consistent with in vivo PET data.

Data set [5] deals with T1, albumin. The data set is described as follows: Absorbance and fluorescence emission of Evans blue with and without albumin. The data set is classed as physicochemical. An excerpt:
FIGS. 1A and 1B show the absorbance and fluorescence emission of Evans blue with and without albumin. […] Evans blue is almost not fluorescent without albumin.
After forming a complex with serum albumin, both NEB and EB became fluorescent. Since only trace amount of NEB was mixed with EB, the majority of the fluorescence came from EB. […] With optical imaging, the migration of the injected EB/NEB in lymphatics could be clearly observed after local injection. The fluorescence signal first reached the popliteal LN then migrated to the sciatic LN (FIG. 22). Ninety min after tracer injection, both LNs were clearly visualized by fluorescence optical imaging. Under bright light, apparent blue dye accumulation could also be seen by the naked eye (FIGS. 23A and 23B). PET and optical imaging were also performed with the same animal after injection of ^18F-AlF-NEB/EB. An overlay of the two images provided high positional correlation of the LNs (FIGS. 24A and 24B).

The test system of data set [6] is platelet aggregation. The conditions noted are these: cited from earlier work.
Setting [7] is: ninety min after local injection.

“And” between values parts separate entries of the source, which are not always exact repeats. Identical values can stand only once. Like-named read-outs stand apart in the source and are kept apart here.

T1 sequence (P02768 25-609, species assumed): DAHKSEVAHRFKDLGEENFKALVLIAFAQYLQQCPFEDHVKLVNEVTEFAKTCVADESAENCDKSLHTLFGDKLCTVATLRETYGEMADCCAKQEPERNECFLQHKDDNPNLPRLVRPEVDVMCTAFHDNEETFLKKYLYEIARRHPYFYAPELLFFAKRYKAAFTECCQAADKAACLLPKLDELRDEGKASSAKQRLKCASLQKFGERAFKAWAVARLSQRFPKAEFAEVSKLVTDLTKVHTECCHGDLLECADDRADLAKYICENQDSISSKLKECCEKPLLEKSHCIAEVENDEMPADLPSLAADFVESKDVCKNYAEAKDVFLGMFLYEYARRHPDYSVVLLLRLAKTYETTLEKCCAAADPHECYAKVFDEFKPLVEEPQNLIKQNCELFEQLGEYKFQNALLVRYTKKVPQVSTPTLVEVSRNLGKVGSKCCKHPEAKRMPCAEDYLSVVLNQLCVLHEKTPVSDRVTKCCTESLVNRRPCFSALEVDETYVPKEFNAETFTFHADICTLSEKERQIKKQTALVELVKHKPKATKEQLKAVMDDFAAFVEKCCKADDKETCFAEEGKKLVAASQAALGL

For orientation: Kd means a measure of binding affinity in units of concentration. Consider `Cc1cc(-c2ccc(NC(=O)CN3CCN(CC(=O)O)CCN(CC(=O)O)CC3)c(C)c2)ccc1N=Nc1ccc2c(S(=O)(=O)O)cc(S(=O)(=O)O)c(N)c2c1O` [NEB], for which the Kd in data set [1] was 48.9 µM and ~50 µM.
`Cc1cc(-c2ccc(NC(=O)CN3CCN4CCN(CC3)CC(=O)[O][64Cu][O]C(=O)C4)c(C)c2)ccc1N=Nc1ccc2c(S(=O)(=O)O)cc(S(=O)(=O)O)c(N)c2c1O` [^64Cu-NEB]: the “absorbed dose, red bone marrow” value in data set [2] worked out at 6.14 mSv. Also, the “tracer uptake over the heart region” value in data set [3] (1 h) was 16.09±0.51 % ID/g; in data set [3] (24 h) it was 8.58±0.81 % ID/g. Besides, the tumor uptake is 5.73±1.11 % ID/g in data set [3] (1 h), 8.03±0.77 % ID/g in data set [3] (2 h) and 8.07±1.01 % ID/g in data set [3] (24 h).
With `Cc1cc(-c2ccc(/N=N/c3ccc4c(S(=O)(=O)O)cc(S(=O)(=O)O)c(N)c4c3O)c(C)c2)ccc1/N=N/c1ccc2c(S(=O)(=O)O)cc(S(=O)(=O)O)c(N)c2c1O` [EB, Evans blue], in data set [4] (presumably left side), the “amount of EB in sciatic LNs, first value of the pair” value was 0.030 ± 0.008 µg. In data set [4] (presumably right side), the “amount of EB in sciatic LNs, second value of the pair” value was determined as 0.028 ± 0.015 µg. In data set [4] (setting [7]), the “amount of EB dye in left popliteal LNs” value came to 0.144 ± 0.034 µg and the “amount of EB dye in right popliteal LNs” value stood at 0.091 ± 0.029 µg. Further, the fluorescence emission peak in data set [5] (only with albumin) is on record as 680 nm. The same compound had an absorbance peak in data set [5] (with or without albumin) of 620 nm. Besides, the “threshold concentration for induction of platelet aggregation” value in data set [6] is on record as “about 100 μM”.
